Measured values published in ChEMBL document CHEMBL6092194, “Development of membrane-targeting chalcone derivatives as antibacterial agents against multidrug-resistant bacteria” (Eur J Med Chem, 2024).
Activity calls are given as the source filed them. The rule behind the calls is not given here.

Legend:
[1] = system: Acinetobacter baumannii; assay: Antibacterial activity against Acinetobacter baumannii ATCC19606 by broth microdilution assay; type: functional
[2] = system: Staphylococcus aureus; assay: Selectivity ratio of MBC for Staphylococcus aureus ATCC43300 in presence of 50% serum to MBC for Staphylococcus aureus ATCC43300 in Mueller Hinton Broth; type: functional
[3] = system: Escherichia coli; assay: Bactericidal activity against Escherichia coli ATCC25922 measured upto 24 hrs by time-kill kinetics assay; type: functional, organism-based; conditions: dose 1-8 µg/ml
[4] = system: Staphylococcus aureus; assay: Antibacterial activity against Staphylococcus aureus ATCC43300 infected in sepsis mouse model assessed as log reduction in bacterial load in liver at 5 mg/kg pre-infected with bacteria for 1 hrs followed by compound administration at 12 hrs interval for 2 days relative to control; type: functional; conditions: time 2 day
[5] = system: Staphylococcus aureus; assay: Bactericidal activity against Staphylococcus aureus ATCC43300 in presence of 50% plasma; type: functional
[6] = system: Staphylococcus aureus; assay: Antibiofilm activity against Staphylococcus aureus ATCC43300 assessed as inhibition of biofilm formation at 16 microg/ml relative to control; type: functional
[7] = system: Staphylococcus aureus; assay: Bactericidal activity against Staphylococcus aureus ATCC43300 in presence of 50% serum; type: functional
[8] = Ratio of MBC for Escherichia coli ATCC25922 measured after 6 hrs in presence of 50% plasma to MBC for Escherichia coli ATCC25922 in Mueller Hinton Broth; type: functional
[9] = system: Escherichia coli; assay: Induction of morphological changes in Escherichia coli ATCC25922 assessed as disruption of cell membrane by scanning electron microscopic analysis; type: functional, organism-based
[10] = system: Escherichia coli; assay: Disruption of preformed biofilm in Escherichia coli ATCC25922 assessed as eradication of biofilm at 32 microg/ml relative to control; type: functional; conditions: dose 32 µg/ml
[11] = system: Cell membrane; assay: Induction of inner membrane permeabilization in Escherichia coli ATCC25922 assessed as fold increase in fluorescence intensity at 8 microg/ml incubated for 20 mins by PI uptake assay relative to negative control; type: subcellular; conditions: dose 8.0 µg/ml
[12] = system: Staphylococcus aureus; assay: Bactericidal activity against Staphylococcus aureus ATCC43300 in Mueller Hinton Broth; type: functional
[13] = Toxicity in BALB/c mouse assessed as survival rate at 20 to 50 mg/kg, ip administered for 7 days relative to control; type: organism-based; conditions: in vivo, dose 20-50 mg/kg, time 7 day
[14] = system: Escherichia coli; assay: Antibacterial activity against Escherichia coli ATCC25922 infected in sepsis mouse model assessed as log reduction in bacterial load in spleen at 5 mg/kg pre-infected with bacteria for 1 hrs followed by compound administration at 12 hrs interval for 2 days relative to control; type: functional; conditions: time 2 day
[15] = system: Escherichia coli; assay: Antibacterial activity against Escherichia coli ATCC25922 infected in sepsis mouse model assessed as reduction in inflammatory cell infiltration in kidney at 10 mg/kg pre-infected with bacteria for 1 hrs followed by compound administration at 12 hrs interval for 2 days by H and E staining based analysis; type: functional, organism-based; conditions: time 2.0 day
[16] = system: Escherichia coli; assay: Antibacterial activity against Escherichia coli ATCC25922 infected in sepsis mouse model assessed as log reduction in bacterial load in blood at 5 mg/kg pre-infected with bacteria for 1 hrs followed by compound administration at 12 hrs interval for 2 days relative to control; type: functional; conditions: time 2 day
[17] = system: Staphylococcus aureus; assay: Antibacterial activity against Staphylococcus aureus ATCC43300 infected in sepsis mouse model assessed as reduction in inflammatory cell infiltration in spleen at 10 mg/kg pre-infected with bacteria for 1 hrs followed by compound administration at 12 hrs interval for 2 days by H and E staining based analysis; type: functional, organism-based; conditions: time 2.0 day
[18] = system: Escherichia coli; assay: Antibiofilm activity against Escherichia coli ATCC25922 assessed as inhibition of biofilm formation at 8 microg/ml relative to control; type: functional
[19] = system: Escherichia coli; assay: Bactericidal activity against Escherichia coli ATCC25922 in presence of 50% plasma; type: functional
[20] = system: Escherichia coli; assay: Antibacterial activity against Escherichia coli ATCC25922 infected in sepsis mouse model assessed as reduction in liver inflammation at 5 to 10 mg/kg pre-infected with bacteria for 1 hrs followed by compound administration at 12 hrs interval for 2 days by H and E staining based analysis; type: functional, organism-based; conditions: dose 5-10 mg/kg, time 2.0 day
[21] = system: Escherichia coli; assay: Ratio of MBC for Escherichia coli ATCC25922 in presence of 50% serum to MBC for Escherichia coli ATCC25922 in Mueller Hinton Broth; type: functional
[22] = system: Escherichia coli; assay: Bactericidal activity against Escherichia coli ATCC25922 in presence of 50% blood; type: functional
[23] = system: Escherichia coli; assay: Disruption of preformed biofilm in Escherichia coli ATCC25922 assessed as eradication of biofilm at 8 microg/ml relative to control; type: functional; conditions: dose 8 µg/ml
[24] = system: Escherichia coli; assay: Bactericidal activity against Escherichia coli ATCC25922 in presence of 50% serum; type: functional
[25] = system: Staphylococcus aureus; assay: Disruption of preformed biofilm in Staphylococcus aureus ATCC43300 assessed as eradication of biofilm at 8 microg/ml relative to control; type: functional; conditions: dose 8 µg/ml
[26] = system: Cell membrane; assay: Disruption of cell membrane in Escherichia coli ATCC25922 assessed as appearance of red fluorescence by PI staining based fluorescence microscopic analysis; type: subcellular
[27] = system: Staphylococcus aureus; assay: Bactericidal activity against Staphylococcus aureus ATCC43300 assessed as log reduction in bacterial colony at 8 microg/ml measured upto 24 hrs by time-kill kinetics assay; type: functional; conditions: dose 8 µg/ml
[28] = system: Staphylococcus aureus; assay: Antibacterial activity against erythromycin susceptible Staphylococcus aureus ATCC25923 by broth microdilution assay; type: functional
[29] = system: Cell membrane; assay: Disruption of cell membrane in Escherichia coli ATCC25922 assessed as increase in DNA leakage; conditions: dose 1-8 µg/ml
[30] = Selectivity ratio of MBC for Staphylococcus aureus ATCC43300 in presence of 50% plasma to MBC for Staphylococcus aureus ATCC43300 in Mueller Hinton Broth; type: functional
[31] = system: Staphylococcus aureus; assay: Antibiofilm activity against Staphylococcus aureus ATCC43300 assessed as inhibition of biofilm formation; type: functional, organism-based
[32] = system: Staphylococcus aureus; assay: Antibiofilm activity against Staphylococcus aureus ATCC43300 assessed as inhibition of biofilm formation at 8 microg/ml relative to control; type: functional
[33] = system: Escherichia coli; assay: Antibacterial activity against Escherichia coli ATCC25922 infected in sepsis mouse model assessed as reduction in inflammatory cell infiltration in spleen at 10 mg/kg pre-infected with bacteria for 1 hrs followed by compound administration at 12 hrs interval for 2 days by H and E staining based analysis; type: functional, organism-based; conditions: time 2.0 day
[34] = system: Staphylococcus aureus; assay: Antibacterial activity against Staphylococcus aureus ATCC43300 infected in sepsis mouse model assessed as log reduction in bacterial load in kidney at 5 mg/kg pre-infected with bacteria for 1 hrs followed by compound administration at 12 hrs interval for 2 days relative to control; type: functional; conditions: time 2 day
[35] = system: Staphylococcus aureus; assay: Induction of morphological changes in Staphylococcus aureus ATCC43300 assessed as rough appearance of cell membrane by scanning electron microscopic analysis; type: functional, organism-based
[36] = system: Staphylococcus aureus; assay: Antibacterial activity against Staphylococcus aureus ATCC43300 infected in sepsis mouse model assessed as reduction in kidney inflammation at 5 to 10 mg/kg pre-infected with bacteria for 1 hrs followed by compound administration at 12 hrs interval for 2 days by H and E staining based analysis; type: functional, organism-based; conditions: dose 5-10 mg/kg, time 2.0 day
[37] = system: Escherichia coli; assay: Induction of morphological changes in Escherichia coli ATCC25922 assessed as rough appearance of cell membrane by scanning electron microscopic analysis; type: functional, organism-based
[38] = system: Staphylococcus aureus; assay: Antibiofilm activity against Staphylococcus aureus ATCC43300 assessed as inhibition of biofilm formation at 1 microg/ml relative to control; type: functional

For `CCCCCCOc1cc[n+](CCCOc2ccc(/C=C/C(=O)c3ccc(OCCC[n+]4ccc(OCCCCCC)cc4)cc3)cc2)cc1.[Br-].[Br-]`, which MIC [1] is on record?
Its MIC is 16 µg/mL.

And the Ratio [2]?
Its Ratio is under 2.

What about the Activity [3] of the same compound?
Its Activity is “Dose-dependent-effect”.

And the “log(activity)” value [4]?
The value was 0.91.

What about the MBC [5] of the same compound?
Its MBC is 4 µg/mL.

And the inhibition at 16 µg/mL [6]?
Its inhibition at 16 µg/mL is 90.9%.

What about the MBC [7] of the same compound?
Its MBC is 16 µg/mL.

What about the Ratio [8] of the same compound?
The Ratio was under 4.

What about the Activity [9] of the same compound?
The Activity was “Active”.

What about the Activity [10] of the same compound?
Its Activity is over 49.08%.

What about the fold change (FC) [11] of the same compound?
Its fold change (FC) is 1.9.

And the MBC [12]?
Its MBC is 4 µg/mL.

What about the survival at 168 h [13] of the same compound?
The survival at 168 h was 100%.

And the “log(activity)” value [14]?
The value was 1.92.

What about the Activity [15] of the same compound?
The Activity was “inactive”.

And the “log(activity)” value [16]?
The value was 0.71.

What about the Activity [17] of the same compound?
Its Activity is “inactive”.

And the inhibition at 8 µg/mL [18]?
The inhibition at 8 µg/mL was 48.7%.

And the MBC [19]?
Its MBC is 8 µg/mL.

What about the Activity [20] of the same compound?
Its Activity is “Active”.

What about the Ratio [21] of the same compound?
Its Ratio is under 2.

What about the MIC [22] of the same compound?
The MIC was 32 µg/mL.

And the Activity [23]?
Its Activity is 41.61%.

And the MBC [24]?
Its MBC is 32 µg/mL.

And the Activity [25]?
The Activity was 20.8%.

And the Activity [26]?
The Activity was “Active”.

And the “log(activity)” value [27]?
The value was 7.24.

And the MIC [28]?
Its MIC is 1 µg/mL.

And the Activity [29]?
The Activity was “Dose-dependent-effect”.

What about the Ratio [30] of the same compound?
Its Ratio is under 2.

What about the Activity [31] of the same compound?
The Activity was “Dose-dependent-effect”.

And the inhibition at 8 µg/mL [32]?
The inhibition at 8 µg/mL was 90.8%.

And the Activity [33]?
The Activity was “inactive”.

What about the “log(activity)” value [34] of the same compound?
Its value is 0.86.

And the Activity [35]?
The Activity was “Active”.

And the Activity [36]?
Its Activity is “Active”.

And the Activity [37]?
The Activity was “Active”.

What about the inhibition at 1 µg/mL [38] of the same compound?
Its inhibition at 1 µg/mL is 6.91%.
